In one experiment the test system is Staphylococcus aureus. Put plainly: Antimicrobial activity against Staphylococcus aureus after 18 to 24 hrs by agar well-diffusion method. The experiment is classed as functional. Background: Agar diffusion results depend on both activity and mobility in agar.
Another experiment has as its system Candida albicans. Put plainly: Antimicrobial activity against Candida albicans after 18 to 24 hrs by agar well-diffusion method. Type of experiment: functional.
For experiment [1], the target named is T1, Enoyl-[acyl-carrier-protein] reductase [NADH] (Mycobacterium tuberculosis) (UniProt P9WGR1).
T1 sequence (whole entry): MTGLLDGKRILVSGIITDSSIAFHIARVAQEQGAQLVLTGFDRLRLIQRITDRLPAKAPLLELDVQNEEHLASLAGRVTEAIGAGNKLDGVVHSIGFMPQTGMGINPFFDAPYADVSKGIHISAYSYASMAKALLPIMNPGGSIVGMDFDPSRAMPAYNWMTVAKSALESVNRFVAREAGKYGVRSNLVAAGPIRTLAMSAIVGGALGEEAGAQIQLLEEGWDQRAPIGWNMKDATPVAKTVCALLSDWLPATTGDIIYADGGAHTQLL
Put plainly: Inhibition of Mycobacterium tuberculosis H37Rv enoyl ACP reductase assessed as reduction in bacterial growth after 5 days by microplate alamar blue assay.

The subject of a further experiment is Escherichia coli. Put plainly: Antimicrobial activity against Escherichia coli after 18 to 24 hrs by agar well-diffusion method. Type of experiment: functional.
Experiment [2] deals with MCF7. Put plainly: Cytotoxicity against human MCF7 cells assessed as cell lysis at 40 ug/ml after 48 hrs by MTT assay. Type of experiment: functional.
Experiment [3] relates to MCF7. Put plainly: Cytotoxicity against human MCF7 cells assessed as cell lysis at 20 ug/ml after 48 hrs by MTT assay. Type of experiment: functional, cell-based. In general terms: Tetrazolium assays rely on reduction of a dye to a coloured formazan, in cell work by metabolically active cells.
Experiment [4] concerns MCF7. Put plainly: Cytotoxicity against human MCF7 cells assessed as cell lysis at 10 ug/ml after 48 hrs by MTT assay. Type of experiment: functional, cell-based.
For experiment [5], the system named is MCF7. Put plainly: Cytotoxicity against human MCF7 cells assessed as cell lysis at 30 ug/ml after 48 hrs by MTT assay. The experiment is classed as functional.
Experiment [6] concerns MCF7. Put plainly: Cytotoxicity against human MCF7 cells assessed as cell lysis at 50 ug/ml after 48 hrs by MTT assay. Type of experiment: functional.
Experiment [7] has as its system MCF7. Put plainly: Anticancer activity against human MCF7 cells after 48 hrs by MTT assay. Type of experiment: functional, cell-based.
For experiment [8], the system named is MCF7. Put plainly: Cytotoxicity against human MCF7 cells assessed as cell lysis after 48 hrs by MTT assay. Type of experiment: functional.

Converted amounts (≈) assume the structure as drawn. The source made the active and inactive calls. No cut-off for these calls is given here.

As to `O=C(/C=C/c1cnc2ccccc2n1)c1ccc2ccccc2c1`, the MIC (against Staphylococcus aureus; with Candida albicans; in experiment [1]; in the experiment on Escherichia coli) was 25 µg/mL (≈ 80.6 µM) throughout.
On to `O=C(/C=C/c1cnc2ccccc2n1)c1cccc([N+](=O)[O-])c1`, for which the MIC in the experiment with Staphylococcus aureus amounted to 50 µg/mL (≈ 164 µM); in the experiment with Candida albicans it was 25 µg/mL (≈ 81.9 µM); in experiment [1], 25 µg/mL (≈ 81.9 µM); against Escherichia coli, 25 µg/mL (≈ 81.9 µM).
On to `O=C(/C=C/c1cnc2ccccc2n1)c1ccc(O)cc1`, for which the outcome with MCF7 [2], in the experiment on MCF7 [3], with MCF7 [4], in the experiment on MCF7 [5] and in the experiment with MCF7 [6] was inactive. Moreover, the MIC in the experiment on Staphylococcus aureus came to 5 µg/mL (≈ 18.1 µM); in [1], 3.12 µg/mL (≈ 11.3 µM); against Escherichia coli it was 5 µg/mL (≈ 18.1 µM).
`O=C(/C=C/c1cnc2ccccc2n1)c1cccc(Br)c1`: the MIC with Staphylococcus aureus is 25 µg/mL (≈ 73.7 µM); against Candida albicans it was 25 µg/mL (≈ 73.7 µM); in [1], 25 µg/mL (≈ 73.7 µM); against Escherichia coli it was 5 µg/mL (≈ 14.7 µM).
For `O=C(/C=C/c1cnc2ccccc2n1)c1ccncc1`, the MIC in the experiment with Staphylococcus aureus was determined as 50 µg/mL (≈ 191 µM); in the experiment with Candida albicans, 50 µg/mL (≈ 191 µM); in experiment [1] it was 6.25 µg/mL (≈ 23.9 µM); with Escherichia coli it was 25 µg/mL (≈ 95.7 µM).
Regarding `COc1ccc(C(=O)/C=C/c2cnc3ccccc3n2)cc1`, the MIC against Staphylococcus aureus is 50 µg/mL (≈ 172 µM); against Candida albicans, 25 µg/mL (≈ 86.1 µM); in experiment [1], 25 µg/mL (≈ 86.1 µM); against Escherichia coli, 25 µg/mL (≈ 86.1 µM).
As for `O=C(/C=C/c1cnc2ccccc2n1)c1ccc(Br)cc1`, the MIC against Staphylococcus aureus came to 75 µg/mL (≈ 221 µM); in the experiment with Candida albicans, 75 µg/mL (≈ 221 µM); in experiment [1], 50 µg/mL (≈ 147 µM); against Escherichia coli, 25 µg/mL (≈ 73.7 µM).
Take `CN[C@@H]1[C@H](O[C@H]2[C@H](O[C@H]3[C@H](O)[C@@H](O)[C@H](N=C(N)N)[C@@H](O)[C@@H]3N=C(N)N)O[C@@H](C)[C@]2(O)C=O)O[C@@H](CO)[C@H](O)[C@H]1O`: the MIC in [1] is 6.25 µg/mL (≈ 10.7 µM).
On to `O=C(/C=C/c1cnc2ccccc2n1)c1ccccc1`, for which the MIC turned out to be 50 µg/mL (≈ 192 µM) in the experiment with Staphylococcus aureus, 25 µg/mL (≈ 96 µM) in the experiment on Candida albicans, 25 µg/mL (≈ 96 µM) in experiment [1] and 50 µg/mL (≈ 192 µM) with Escherichia coli.
Take `O=C(/C=C/c1cnc2ccccc2n1)c1ccc(F)cc1`: the outcome in the experiment with MCF7 [2], in the experiment with MCF7 [3], in the experiment with MCF7 [4], in the experiment with MCF7 [5] and in the experiment on MCF7 [6] was inactive. Further, the MIC against Staphylococcus aureus came out at 75 µg/mL (≈ 270 µM); in the experiment with Candida albicans it was 25 µg/mL (≈ 89.8 µM); in experiment [1], 25 µg/mL (≈ 89.8 µM); in the experiment on Escherichia coli, 25 µg/mL (≈ 89.8 µM). The IC50 in the experiment on MCF7 [7] worked out at 50 µg/mL (≈ 180 µM).
Regarding `Nc1ccc(C(=O)/C=C/c2cnc3ccccc3n2)cc1`, the Activity in the experiment on MCF7 [2], with MCF7 [5] and in the experiment on MCF7 [6] was 50% throughout. Also, the result in the experiment on MCF7 [3] and with MCF7 [4] was Active. The MIC was determined as 50 µg/mL (≈ 182 µM) against Staphylococcus aureus, 25 µg/mL (≈ 90.8 µM) against Candida albicans, 25 µg/mL (≈ 90.8 µM) in [1] and 25 µg/mL (≈ 90.8 µM) against Escherichia coli. Further, the IC50 with MCF7 [7] amounted to 25 µg/mL (≈ 90.8 µM).
As for `COc1cccc2c1C(=O)c1c(O)c3c(c(O)c1C2=O)C[C@@](O)(C(=O)CO)C[C@@H]3O[C@H]1C[C@H](N)[C@H](O)[C@H](C)O1` [DOXORUBICIN], in the experiment on MCF7 [8], the Activity is recorded as 50%. The compound further came in with an IC50 with MCF7 [7] of 5 to 7.5 µg.
For the compound `NC(=O)c1cnccn1`, in experiment [1], the MIC came to 3.12 µg/mL (≈ 25.3 µM).
Consider `O=C(/C=C/c1cnc2ccccc2n1)c1ccc([N+](=O)[O-])cc1`, for which the MIC was 50 µg/mL (≈ 164 µM) with Staphylococcus aureus, 50 µg/mL (≈ 164 µM) in the experiment with Candida albicans, 25 µg/mL (≈ 81.9 µM) in [1] and 25 µg/mL (≈ 81.9 µM) against Escherichia coli.
As to `O=C(/C=C/c1cnc2ccccc2n1)c1ccc(Cl)cc1`, the MIC against Staphylococcus aureus amounted to 25 µg/mL (≈ 84.8 µM); in the experiment on Candida albicans it was 25 µg/mL (≈ 84.8 µM); in experiment [1] it was 25 µg/mL (≈ 84.8 µM); against Escherichia coli it was 10 µg/mL (≈ 33.9 µM).
For `OC(Cn1cncn1)(Cn1cncn1)c1ccc(F)cc1F` [FLUCONAZOLE], the MIC in the experiment on Candida albicans stood at 16 µg/mL (≈ 52.2 µM).
With `Nc1cccc(C(=O)/C=C/c2cnc3ccccc3n2)c1`, the MIC was determined as 50 µg/mL (≈ 182 µM) against Staphylococcus aureus, 25 µg/mL (≈ 90.8 µM) in the experiment with Candida albicans, 25 µg/mL (≈ 90.8 µM) in [1] and 25 µg/mL (≈ 90.8 µM) in the experiment with Escherichia coli.
Regarding `O=C(O)c1cn(C2CC2)c2cc(N3CCNCC3)c(F)cc2c1=O` [CIPROFLOXACIN], the MIC against Staphylococcus aureus worked out at 2 µg/mL (≈ 6.04 µM); in experiment [1] it was 3.12 µg/mL (≈ 9.42 µM).
Consider `O=C(/C=C/c1cnc2ccccc2n1)c1cccc(O)c1`, for which the MIC against Staphylococcus aureus is 10 µg/mL (≈ 36.2 µM); in the experiment on Candida albicans, 10 µg/mL (≈ 36.2 µM); in experiment [1], 3.12 µg/mL (≈ 11.3 µM); against Escherichia coli, 5 µg/mL (≈ 18.1 µM).

(Values after ChEMBL document CHEMBL4038288, “Novel quinoxalinyl chalcone hybrid scaffolds as enoyl ACP reductase inhibitors: Synthesis, molecular docking and biological evaluation” (Bioorg Med Chem Lett, 2017).)
